Data published in patent US7285571B2, “Herbal chemical composition for the treatment of cancer” (Council of Scientific and Industrial Research, priority 2001, dated 2007).

Tests used:
Type in all cases: cell-based
[1] = test system: human cancer cell lines; assay: In vitro cytotoxicity against the human cancer cell lines studied (panel); conditions: for inhibition of cell growth of the human cancer cell lines studied (in words): 10, 30 and 100 μg/ml; for inhibition at 100 µg/mL: Homo sapiens, at 100 μg/ml, read-out: inhibition of cell growth, range over the human cancer cell lines studied
Protocol: (§1) The human cancer cell lines were obtained either from National center for cell science, Pune, India or National Cancer Institute, Frederick, Md., U.S.A. Cells were grown in tissue culture flasks in complete growth medium (RPMI-1640 medium with 2 mM glutamine, 100 μg/ml streptomycin, pH 7.4, sterilized by filtration and supplemented with 10% sterilized fetal calf serum and 100 units/ml penicillin before use) at 37° C. in an atmosphere of 5% CO2 and 90% relative humidity in a carbon dioxide incubator (WTB binder, Germany). The cells at subconfluent stage were harvested from the flask by treatment with trypsin (0.05% trypsin in PBS containing 0.02% EDTA) and suspended in complete growth medium. Cells with cell viability of more than 97% by trypan blue exclusion technique were used for determination of cytotoxicity.
(§2) (−)-Matairesinol was dissolved in DMSO (dimethyl sulphoxide) to obtain a stock solution of 20 mg/ml. The stock solution was serially diluted with complete growth medium containing 50 μg/ml of gentamycin to obtain three working test solutions of 200, 60 and 20 μg/ml
(§3) The suspension of human cancer cell lines of required cell density in complete growth medium was prepared and cell suspension ([…] per wall) of each cell line) of 96-well tissue culture plate. Three additional wells of each cell line were also prepared for control. Two blank wells for control and each experimental and each experimental set for every cell line were also included that contained equivalent amount of complete growth medium only. The plates were incubated at 37° C. in an atmosphere of 5% CO2 and 90% relative humidity in a carbon dioxide incubator.
The working test solutions of (−)-Matairesinol of different concentrations (100 μl) were added after 24-hours incubation in all the wells including blanks of the experimental set. The equivalent amount of complete growth medium was added to control set. […]
(§4) Cell growth was measured by staining with sulforhodamine B dye (SRB). […] The optical density was recorded on ELISA reader at 540 run.
(§5) The cell growth in presence of test material was determined by subtracting mean OD value of respective blank from the mean OD value of experimental set. Like wise, cell growth in absence of test material (control set) and in presence of positive control was also determined. The percent cell growth in presence of test material was determined considering the cell growth in absence of test material as 100% and in turn percent inhibition was calculated.
In vitro cytotoxicity of (−)-matairesinol was determined against human breast (MCF-7 & ZR-75-1), neuroblastoma (SK-N-MC & IMR-32), cervix (SiHa), colon (Colo-205, HT-29 & SW-620), liver (HEP-2) and lung (A-549) cancer cell lines. […]

[2] = test system: ZR-75-1; assay: In vitro cytotoxicity (SRB), ZR-75-1; conditions: Homo sapiens; ZR-75-1 (breast), 100 μg/ml, 48-hours; read-out: Percent growth inhibition
Protocol: as §1, with “Cells with cell viability of more than 97% by trypan blue exclusion technique were used for determination of cytotoxicity.” left out
as §4, §5

[3] = test system: IMR-32; assay: In vitro cytotoxicity (SRB), IMR-32; conditions: Homo sapiens; IMR-32 (neuroblastoma), 100 μg/ml, 48-hours; read-out: Percent growth inhibition
Protocol: as §1, with “Cells with cell viability of more than 97% by trypan blue exclusion technique were used for determination of cytotoxicity.” left out
as §4, §5

[4] = test system: SiHa; assay: In vitro cytotoxicity (SRB), SiHa; conditions: Homo sapiens, SiHa (cervix), 48-hours, read-out: Percent growth inhibition; for inhibition at 10 µg/mL: 10 μg/ml; for inhibition at 30 µg/mL: 30 μg/ml; for inhibition at 100 µg/mL: 100 μg/ml
Protocol: as §1, §2, §3
(§6) The working test solutions of (−)-Matairesinol of different concentrations (100 μl) were added after 24-hours incubation in all the wells including blanks of the experimental set. The equivalent amount of complete growth medium was added to control set.
(§7) The plates were further incubated for 48-hours (at 37° C. in an atmosphere of 5% CO2 and 90% relative humidity in a carbon dioxide incubator) after addition of test material etc. and then the cell growth was stopped by gently layering of 50 μl of TCA (50% trichloroacetic acid) on top of the medium in all the wells. The plates were incubated at 4° C. for one hour to fix the cells attached to the bottom of the wells. Liquids of all the wells were gently pipetted out and discarded. The plates were washed five times with distilled water to remove TCA, growth medium, low molecular weight metabolites, serum proteins etc. Plates were air-dried.
(§8) Cell growth was measured by staining with sulforhodamine B dye (SRB). The SRB solution (100 μl of 0.4% in 1% acetic acid) was added to each well and the plates were incubated at room temperature for 30 minutes. The unbound SRB was quickly removed by washing the wells five times with 1-% acetic acid and plates were air-dried. Tris-buffer (100 μl of 0.01 M, pH 10.4) was added to all the wells and plates were gently stirred for 5 minutes on a mechanical stirrer. The optical density was recorded on ELISA reader at 540 run.
as §5

[5] = test system: MCF-7; assay: In vitro cytotoxicity (SRB), MCF-7; conditions: Homo sapiens, MCF7, MCF-7 (breast), 48-hours, read-out: Percent growth inhibition; for inhibition at 10 µg/mL: 10 μg/ml; for inhibition at 30 µg/mL: 30 μg/ml; for inhibition at 100 µg/mL: 100 μg/ml
Protocol: as §1, §2, §3, §6, §7, §8, §5

[6] = test system: Hep-2; assay: In vitro cytotoxicity (SRB), Hep-2; conditions: Homo sapiens; Hep-2 (liver), 100 μg/ml, 48-hours; read-out: Percent growth inhibition
Protocol: as §1, with “Cells with cell viability of more than 97% by trypan blue exclusion technique were used for determination of cytotoxicity.” left out
as §4, §5

[7] = test system: cancer cells of lung; assay: Growth inhibition of cancer cells of lung; conditions: Homo sapiens, A549; concentration of about 100 μg/ml; A-549; read-out: inhibits the growth of cancer cells of lung
Protocol: as §1, with “Cells with cell viability of more than 97% by trypan blue exclusion technique were used for determination of cytotoxicity.” left out
as §4, §5

[8] = test system: SKNMC; assay: In vitro cytotoxicity (SRB), SKNMC; conditions: Homo sapiens, SK-N-MC; SKNMC (neuroblastoma), 100 μg/ml, 48-hours; read-out: Percent growth inhibition
Protocol: as §1, with “Cells with cell viability of more than 97% by trypan blue exclusion technique were used for determination of cytotoxicity.” left out
as §4, §5

[9] = test system: SW-620; assay: In vitro cytotoxicity (SRB), SW-620; conditions: Homo sapiens, SW-620 (colon), 48-hours, read-out: Percent growth inhibition; for inhibition at 30 µg/mL: 30 μg/ml; for inhibition at 100 µg/mL: 100 μg/ml
Protocol: as §1, §2, §3, §6, §7
as §8, with “Tris-buffer (100 μl of 0.01 M, pH 10.4) was added to all the wells and plates were gently stirred for 5 minutes on a mechanical stirrer.” left out
as §5

[10] = test system: cancer cells of neuroblastoma; assay: Growth inhibition of cancer cells of neuroblastoma; conditions: Homo sapiens; concentration of about 100 μg/ml; SKNMC and IMR-32; read-out: inhibits the growth of cancer cells of neuroblastoma
Protocol: as §1, with “Cells with cell viability of more than 97% by trypan blue exclusion technique were used for determination of cytotoxicity.” left out
as §4, §5

[11] = test system: cancer cells of liver; assay: Growth inhibition of cancer cells of liver; conditions: Homo sapiens; concentration of about 100 μg/ml; Hep-2; read-out: inhibits the growth of cancer cells of liver
Protocol: as §1, with “Cells with cell viability of more than 97% by trypan blue exclusion technique were used for determination of cytotoxicity.” left out
as §4, §5

[12] = test system: cancer cells of colon; assay: Growth inhibition of cancer cells of colon; conditions: Homo sapiens; concentration of about 100 μg/ml; Colo-205, HT-29 and SW-620; read-out: inhibits the growth of cancer cells of colon
Protocol: as §1, with “Cells with cell viability of more than 97% by trypan blue exclusion technique were used for determination of cytotoxicity.” left out
as §4, §5

[13] = test system: cancer cells of breast; assay: Growth inhibition of cancer cells of breast; conditions: Homo sapiens; concentration of about 100 μg/ml; MCF-7 and ZR-75-1; read-out: inhibits the growth of cancer cells of breast
Protocol: as §1, with “Cells with cell viability of more than 97% by trypan blue exclusion technique were used for determination of cytotoxicity.” left out
as §4, §5

[14] = test system: cancer cells of cervix; assay: Growth inhibition of cancer cells of cervix; conditions: Homo sapiens; concentration of about 100 μg/ml; SiHa; read-out: inhibits the growth of cancer cells of cervix
Protocol: as §1, with “Cells with cell viability of more than 97% by trypan blue exclusion technique were used for determination of cytotoxicity.” left out
as §4, §5

[15] = test system: Colo-205; assay: In vitro cytotoxicity (SRB), Colo-205; conditions: Homo sapiens, Colo-205 (colon), 48-hours, read-out: Percent growth inhibition; for inhibition at 10 µg/mL: 10 μg/ml; for inhibition at 30 µg/mL: 30 μg/ml; for inhibition at 100 µg/mL: 100 μg/ml
Protocol: as §1, §2, §3, §6, §7, §8, §5

[16] = test system: A-549; assay: In vitro cytotoxicity (SRB), A-549; conditions: Homo sapiens, A549, A-549 (lung), 48-hours, read-out: Percent growth inhibition; for inhibition at 10 µg/mL: 10 μg/ml; for inhibition at 30 µg/mL: 30 μg/ml; for inhibition at 100 µg/mL: 100 μg/ml
Protocol: as §1, §2, §3, §6, §7, §8, §5

[17] = test system: HT-29; assay: In vitro cytotoxicity (SRB), HT-29; conditions: Homo sapiens, HT-29 (colon), 48-hours, read-out: Percent growth inhibition; for inhibition at 30 µg/mL: 30 μg/ml; for inhibition at 100 µg/mL: 100 μg/ml
Protocol: as §1, §2, §3, §6
The plates were further incubated for 48-hours (at 37° C. in an atmosphere of 5% CO2 and 90% relative humidity in a carbon dioxide incubator) after addition of test material etc. and then the cell growth was stopped by gently layering of 50 μl of TCA (50% trichloroacetic acid) on top of the medium in all the wells. […]
as §4, §5

Row | SMILES | inhibition of cell growth of the human cancer cell lines studied (in words) [1] | inhibition at 100 µg/mL [1] [%] | inhibition at 100 µg/mL [2] [%] | inhibition at 100 µg/mL [3] [%] | inhibition at 10 µg/mL [4] [%] | inhibition at 30 µg/mL [4] [%] | inhibition at 100 µg/mL [4] [%] | inhibition at 10 µg/mL [5] [%] | inhibition at 30 µg/mL [5] [%] | inhibition at 100 µg/mL [5] [%] | inhibition at 100 µg/mL [6] [%] | inhibition at 100 µg/mL [7] [%] | inhibition at 100 µg/mL [8] [%] | inhibition at 30 µg/mL [9] [%] | inhibition at 100 µg/mL [9] [%] | inhibition at 100 µg/mL [10] [%] | inhibition at 100 µg/mL [11] [%] | inhibition at 100 µg/mL [12] [%] | inhibition at 100 µg/mL [13] [%] | inhibition at 100 µg/mL [14] [%] | also measured
1 | COc1cc(C[C@H]2COC(=O)[C@@H]2Cc2ccc(O)c(OC)c2)ccc1O [(−)-Matairesinol] | dose dependent inhibition of cell growth | 54 to 93 | 62 | 77 | 10 | 29 | 63 | 10 | 36 | 54 | 64 | ≤ 65 | 75 | 11 | 68 | ≤ 77 | ≤ 64 | ≤ 93 | ≤ 62 | ≤ 63 | inhibition at 10 µg/mL [15]: 15%; inhibition at 30 µg/mL [15]: 28%; inhibition at 100 µg/mL [15]: 93%; inhibition at 10 µg/mL [16]: 19%; inhibition at 30 µg/mL [16]: 33%; inhibition at 100 µg/mL [16]: 65%; inhibition at 30 µg/mL [17]: 10%; inhibition at 100 µg/mL [17]: 74%
2 | COc1cc(CC2COC(=O)C2(O)Cc2ccc(O)c(OC)c2)ccc1O (stereo in doubt) [(−)-Wikstromol] | dose dependent inhibition of cell growth | 32 to 67 | 37 | 56 | 16 | 21 | 37 | 7 | 26 | 51 | 46 | ≤ 56 | 44 | 20 | 50 | ≤ 56 | ≤ 46 | ≤ 67 | ≤ 51 | ≤ 37 | inhibition at 10 µg/mL ([9]; 10 μg/ml): 14%; inhibition at 10 µg/mL [15]: 5%; inhibition at 30 µg/mL [15]: 27%; inhibition at 100 µg/mL [15]: 67%; inhibition at 10 µg/mL [16]: 21%; inhibition at 30 µg/mL [16]: 37%; inhibition at 100 µg/mL [16]: 56%; inhibition at 30 µg/mL [17]: 6%; inhibition at 100 µg/mL [17]: 32%
